# Target: Gamma-secretase
# Assay: Inhibitory activity against Gamma-secretase in detergent-solubilized HeLa cell membranes with recombinant APP-based substrate
row,SMILES,IC50
1,CC[C@H](C)[C@H](NC(=O)[C@@H](NC(=O)[C@@H](NC(=O)C(C)(C)NC(=O)CNC(=O)[C@@H](NC(=O)C(C)(C)NC(=O)[C@H](CC(C)C)NC(=O)OC(C)(C)C)C(C)C)C(C)C)C(C)C)C(=O)NC(C)(C)C(=O)N[C@H](C(=O)N[C@H](C(=O)NC(C)(C)C(=O)N[C@H](C(=O)N[C@H](C(=O)NC(C)(C)C(=O)OC)[C@@H](C)CC)C(C)C)C(C)C)[C@@H](C)OCc1ccccc1,4700 nM
2,CC[C@H](C)[C@H](NC(=O)[C@@H](NC(=O)[C@@H](NC(=O)C(C)(C)NC(=O)CNC(=O)[C@@H](NC(=O)C(C)(C)NC(=O)[C@H](CC(C)C)NC(=O)CNC(=O)OC(C)(C)C)C(C)C)C(C)C)C(C)C)C(=O)NC(C)(C)C(=O)N[C@H](C(=O)N[C@H](C(=O)NC(C)(C)C(=O)N[C@H](C(=O)N[C@H](C(=O)NC(C)(C)C(=O)OC)[C@@H](C)CC)C(C)C)C(C)C)[C@@H](C)OCc1ccccc1,11000 nM
3,CC[C@H](C)[C@H](NC(=O)[C@@H](NC(=O)[C@@H](NC(=O)C(C)(C)NC(=O)CNC(=O)[C@@H](NC(=O)OC(C)(C)C)C(C)C)C(C)C)C(C)C)C(=O)NC(C)(C)C(=O)N[C@H](C(=O)N[C@H](C(=O)NC(C)(C)C(=O)OC)C(C)C)[C@@H](C)OCc1ccccc1,30000 nM
4,CC[C@H](C)[C@H](NC(=O)[C@@H](NC(=O)[C@@H](NC(=O)C(C)(C)NC(=O)CNC(=O)OC(C)(C)C)C(C)C)C(C)C)C(=O)NC(C)(C)C(=O)N[C@H](C(=O)N[C@H](C(=O)NC(C)(C)C(=O)N[C@H](C(=O)N[C@H](C(=O)NC(C)(C)C(=O)OC)[C@@H](C)CC)C(C)C)C(C)C)[C@@H](C)OCc1ccccc1,360 nM
5,CC[C@H](C)[C@H](NC(=O)[C@@H](NC(=O)[C@@H](NC(=O)C(C)(C)NC(=O)OC(C)(C)C)C(C)C)C(C)C)C(=O)NC(C)(C)C(=O)N[C@H](C(=O)N[C@H](C(=O)NC(C)(C)C(=O)N[C@H](C(=O)N[C@H](C(=O)NC(C)(C)C(=O)OC)[C@@H](C)CC)C(C)C)C(C)C)[C@@H](C)OCc1ccccc1,3100 nM
6,CC[C@H](C)[C@H](NC(=O)[C@@H](NC(=O)[C@@H](NC(=O)C(C)(C)NC(=O)CNC(=O)[C@@H](NC(=O)OC(C)(C)C)C(C)C)C(C)C)C(C)C)C(=O)NC(C)(C)C(=O)N[C@H](C(=O)N[C@H](C(=O)NC(C)(C)C(=O)N[C@H](C(=O)N[C@H](C(=O)NC(C)(C)C(=O)OC)[C@@H](C)CC)C(C)C)C(C)C)[C@@H](C)OCc1ccccc1,780 nM
7,CC[C@H](C)[C@H](NC(=O)[C@@H](NC(=O)[C@@H](NC(=O)OC(C)(C)C)C(C)C)C(C)C)C(=O)NC(C)(C)C(=O)N[C@H](C(=O)N[C@H](C(=O)NC(C)(C)C(=O)N[C@H](C(=O)N[C@H](C(=O)NC(C)(C)C(=O)OC)[C@@H](C)CC)C(C)C)C(C)C)[C@@H](C)OCc1ccccc1,10000 nM
8,CC[C@H](C)[C@H](NC(=O)[C@@H](NC(=O)[C@@H](NC(=O)C(C)(C)NC(=O)CNC(=O)[C@@H](NC(=O)C(C)(C)NC(=O)OC(C)(C)C)C(C)C)C(C)C)C(C)C)C(=O)NC(C)(C)C(=O)N[C@H](C(=O)N[C@H](C(=O)NC(C)(C)C(=O)N[C@H](C(=O)N[C@H](C(=O)NC(C)(C)C(=O)OC)[C@@H](C)CC)C(C)C)C(C)C)[C@@H](C)OCc1ccccc1,910 nM

# Now those with a lower IC50, led by results:
row,IC50,SMILES
1,12 nM,CC[C@@H](C)[C@@H](NC(=O)[C@H](NC(=O)[C@H](NC(=O)C(C)(C)NC(=O)CNC(=O)OC(C)(C)C)C(C)C)C(C)C)C(=O)NC(C)(C)C(=O)N[C@@H](C(=O)N[C@@H](C(=O)NC(C)(C)C(=O)N[C@@H](C(=O)N[C@@H](C(=O)NC(C)(C)C(=O)OC)[C@H](C)CC)C(C)C)C(C)C)[C@H](C)OCc1ccccc1
2,0.14 nM,CC[C@@H](C)[C@@H](NC(=O)[C@H](NC(=O)[C@H](NC(=O)C(C)(C)NC(=O)CNC(=O)[C@H](NC(=O)OC(C)(C)C)C(C)C)C(C)C)C(C)C)C(=O)NC(C)(C)C(=O)N[C@@H](C(=O)N[C@@H](C(=O)NC(C)(C)C(=O)N[C@@H](C(=O)N[C@@H](C(=O)NC(C)(C)C(=O)OC)[C@H](C)CC)C(C)C)C(C)C)[C@H](C)OCc1ccccc1
3,14 nM,CC[C@@H](C)[C@@H](NC(=O)[C@H](NC(=O)[C@H](NC(=O)C(C)(C)NC(=O)CNC(=O)[C@H](NC(=O)C(C)(C)NC(=O)OC(C)(C)C)C(C)C)C(C)C)C(C)C)C(=O)NC(C)(C)C(=O)N[C@@H](C(=O)N[C@@H](C(=O)NC(C)(C)C(=O)N[C@@H](C(=O)N[C@@H](C(=O)NC(C)(C)C(=O)OC)[C@H](C)CC)C(C)C)C(C)C)[C@H](C)OCc1ccccc1
4,26 nM,CC[C@@H](C)[C@@H](NC(=O)[C@H](NC(=O)[C@H](NC(=O)C(C)(C)NC(=O)CNC(=O)[C@H](NC(=O)C(C)(C)NC(=O)[C@@H](CC(C)C)NC(=O)CNC(=O)OC(C)(C)C)C(C)C)C(C)C)C(C)C)C(=O)NC(C)(C)C(=O)N[C@@H](C(=O)N[C@@H](C(=O)NC(C)(C)C(=O)N[C@@H](C(=O)N[C@@H](C(=O)NC(C)(C)C(=O)OC)[C@H](C)CC)C(C)C)C(C)C)[C@H](C)OCc1ccccc1
5,90 nM,CC[C@@H](C)[C@@H](NC(=O)[C@H](NC(=O)[C@H](NC(=O)C(C)(C)NC(=O)CNC(=O)[C@H](NC(=O)OC(C)(C)C)C(C)C)C(C)C)C(C)C)C(=O)NC(C)(C)C(=O)N[C@@H](C(=O)N[C@@H](C(=O)NC(C)(C)C(=O)OC)C(C)C)[C@H](C)OCc1ccccc1
6,25 nM,CC[C@@H](C)[C@@H](NC(=O)[C@H](NC(=O)[C@H](NC(=O)OC(C)(C)C)C(C)C)C(C)C)C(=O)NC(C)(C)C(=O)N[C@@H](C(=O)N[C@@H](C(=O)NC(C)(C)C(=O)N[C@@H](C(=O)N[C@@H](C(=O)NC(C)(C)C(=O)OC)[C@H](C)CC)C(C)C)C(C)C)[C@H](C)OCc1ccccc1
7,16 nM,CC[C@@H](C)[C@@H](NC(=O)[C@H](NC(=O)[C@H](NC(=O)C(C)(C)NC(=O)CNC(=O)[C@H](NC(=O)C(C)(C)NC(=O)[C@@H](CC(C)C)NC(=O)OC(C)(C)C)C(C)C)C(C)C)C(C)C)C(=O)NC(C)(C)C(=O)N[C@@H](C(=O)N[C@@H](C(=O)NC(C)(C)C(=O)N[C@@H](C(=O)N[C@@H](C(=O)NC(C)(C)C(=O)OC)[C@H](C)CC)C(C)C)C(C)C)[C@H](C)OCc1ccccc1
8,28 nM,"CC[C@@H](C)[C@@H](NC(=O)[C@H](NC(=O)[C@H](NC(=O)C(C)(C)NC(=O)OC(C)(C)C)C(C)C)C(C)C)C(=O)NC(C)(C)C(=O)N[C@@H](C(=O)N[C@@H](C(=O)NC(C)(C)C(=O)N[C@@H](C(=O)N[C@@H](C(=O)NC(C)(C)C(=O)OC)[C@H](C)CC)C(C)C)C(C)C)[C@H](C)OCc1ccccc1 (single isomer, unassigned)"

# Target: Gamma-secretase
# Assay: Inhibitory activity against Gamma-secretase from APP-transfected CHO cells
# Type: functional, cell-based, Homo sapiens
row,IC50,SMILES
1,9 nM,CC[C@@H](C)[C@@H](NC(=O)[C@H](NC(=O)[C@H](NC(=O)C(C)(C)NC(=O)CNC(=O)[C@H](NC(=O)OC(C)(C)C)C(C)C)C(C)C)C(C)C)C(=O)NC(C)(C)C(=O)N[C@@H](C(=O)N[C@@H](C(=O)NC(C)(C)C(=O)N[C@@H](C(=O)N[C@@H](C(=O)NC(C)(C)C(=O)OC)[C@H](C)CC)C(C)C)C(C)C)[C@H](C)OCc1ccccc1
